Results reported in US6426355B1, “Heterocyclic carboxamide-containing thiourea inhibitors of herpes viruses containing phenylenediamine group” (American Home Products, priority 1998, dated 2002).
Values after ≈ are worked out from the molar mass of the structure shown.

How the values were obtained:
[1] = test system: HCMV recombinant mutant virus (RV145); test: HCMV microtiter plate assay (beta-glucuronidase reporter); assay type: cell-based, Human Cytomegalovirus; details: HCMV in human foreskin fibroblasts
Description: Ninety-six well plate cultures of human foreskin fibroblasts are infected in the presence of inhibitor compound with a HCMV recombinant mutant virus whose genome contains the prokaryotic beta-glucuronidase gene (Jefferson, R. A., S. M. Burgess, and D. Hirsh. 1986. Beta-glucuronidase from Escherichia coli as a gene fusion marker. Proc. Natl. Acad. Sci. USA 83:8447-8451) whose expression is controlled by a viral promoter. An example of such a virus is RV145 (Jones, T. R., V. P. Muzithras, and Y. Gluzman. 1991. Replacement mutagenesis of the human cytomegalovirus genome: US10 and US11 gene products are nonessential. J. Virol. 65:5860-5872). Since it is under the control of a viral promoter, beta-glucuronidase expression is an indirect indicator of growth and replication of HCMV in this assay. At 96 hours post-infection, the infected cell lysates are prepared (using 50 mM sodium phosphate [pH7.0] containing 0.1% Triton X-100 and 0.1% sarkosyl) and assayed for beta-glucuronidase activity using a substrate for the enzyme which when cleaved yields either a product which can be measured colorimetrically in a spectrophotometer or fluorescently in a microfluorimeter. Examples of such substrates are p-nitrophenyl-beta-D-glucuronide and methylumbelliferylglucuronide, respectively. The presence of an antiviral compound is indicated by the reduced expression of the HCMV genome resident beta-glucuronidase gene, compared to the absence of inhibitor. […] Data from this assay generated using varying amounts of inhibitor compound is also used to estimate the IC50 of an inhibitor compound.

[2] = test system: HSV-1; test: HSV Antiviral (ELISA) assay; assay type: cell-based; details: HSV-1 in Vero cells
Experimental: Vero cells (ATCC #CCL-81) are plated on 96-well tissue culture plates at 3.5×10^4 cells per 100 μl tissue culture DMEM (Dulbecco's modified Eagle media) supplemented with 2% fetal bovine serum (FBS) in each well. After overnight incubation @ 37° C. (in 5% CO2) and 30 minutes prior to infection with HSV-1 (multiplicity of infection equal to 0.006), cells are either untreated, or treated with test compound (multiple concentrations) or reference standard drug control. After approximately 24 hours post-infection incubation @ 37° C. (in 5% CO2), cells are fixed for ELISA assay. The primary antibody is murine anti-HSV glycoprotein D monoclonal primary antibody and the secondary antibody is goat anti-mouse IgG linked to β-galactosidase. Thus the extent of viral replication is determined by assessing β-galactosidase activity by quantifying the generation of the 4-methyl umbelliferone fluorescent cleavage product after addition of the methyl umbelliferyl-β-D-galactoside (Sigma #M1633) substrate on a microfluorimeter (365 nm for excitation and 450 nm for emission). Antiviral activity (IC50) of the test compound is determined by comparing the flourescence obtained in absence of compound to that obtained in the presence of compound.

Row | Structure (SMILES) | IC50 (ug/ml) HCMV [1] [µg/mL] | IC50 (ug/ml) HSV [2] [µg/mL]
1 | O=C(Nc1ccc(NC(=S)NCc2cccc(I)c2)cc1)c1csnn1 [Example 663] | 0.01 (≈ 0.0202 µM) | >10
2 | O=C(Nc1ccc(NC(=S)NCCOc2cc(Cl)cc(Cl)c2)cc1)c1ccco1 [Example 665] | 0.02 (≈ 0.0444 µM) | 5 (≈ 11.1 µM)
3 | O=C(Nc1ccc(NC(=S)NCCOc2cccc(Cl)c2)cc1)c1ccco1 [Example 667] | 0.03 (≈ 0.0721 µM) | 8 (≈ 19.2 µM)
4 | O=C(Nc1ccc(NC(=S)NCCOc2cccc(Cl)c2)cc1)c1csnn1 [Example 668] | 0.009 (≈ 0.0207 µM) | >10
5 | O=C(Nc1ccc(NC(=S)NCc2cc(C(F)(F)F)ccc2F)cc1)c1ccco1 [Example 670] | 0.02 (≈ 0.0457 µM) | >10
6 | O=C(Nc1ccc(NC(=S)NCc2cc(C(F)(F)F)ccc2F)cc1)c1csnn1 [Example 671] | 0.005 (≈ 0.011 µM) | >10
7 | CN(C)c1cc(CCNC(=S)Nc2ccc(NC(=O)c3csnn3)cc2)cc(C(F)(F)F)c1 [Example 674] | 0.006 (≈ 0.0121 µM) | >10
8 | O=C(Nc1ccc(NC(=S)NCc2ccc(F)c(F)c2)cc1)c1ccco1 [Example 675] | 0.05 (≈ 0.129 µM) | >10
9 | O=C(Nc1ccc(NC(=S)NCc2ccc(F)c(F)c2)cc1)c1csnn1 [Example 676] | 0.013 (≈ 0.0321 µM) | >10
10 | O=C(Nc1ccc(NC(=S)NCCSc2cccc(Br)c2)cc1)c1csnn1 [Example 678] | 0.005 (≈ 0.0101 µM) | >10
11 | O=C(Nc1ccc(NC(=S)NCCSc2cccc(Br)c2)cc1)c1ccco1 [Example 679] | 0.01 (≈ 0.021 µM) | 10 (≈ 21 µM)
12 | COc1ccc(CCNC(=S)Nc2ccc(NC(=O)c3csnn3)cc2)cc1Br [Example 681] | 0.02 (≈ 0.0406 µM) | >10
13 | COc1ccc(Br)cc1CCNC(=S)Nc1ccc(NC(=O)c2csnn2)cc1 [Example 682] | 0.006 (≈ 0.0122 µM) | >10
14 | O=C(Nc1ccc(NC(=S)NCCc2ccccc2Cl)cc1)c1csnn1 [Example 683] | 0.02 (≈ 0.0479 µM) | 10 (≈ 23.9 µM)
15 | O=C(Nc1ccc(NC(=S)NCCc2ccccc2F)cc1)c1csnn1 [Example 684] | 0.005 (≈ 0.0125 µM) | 10 (≈ 24.9 µM)
16 | O=C(Nc1ccc(NC(=S)NCCc2ccc(Cl)cc2)cc1)c1csnn1 [Example 685] | 0.006 (≈ 0.0144 µM) | 10 (≈ 23.9 µM)
17 | O=C(Nc1ccc(NC(=S)NCCC(c2ccccc2)c2ccccc2)cc1)c1csnn1 [Example 686] | 0.007 (≈ 0.0148 µM) | >10
18 | O=C(Nc1ccc(NC(=S)NCCOc2cc(Cl)cc(Cl)c2)cc1)c1csnn1 [Example 688] | 0.006 (≈ 0.0128 µM) | >10
19 | O=C(Nc1ccc(NC(=S)NCc2ccc(F)c(Cl)c2)cc1)c1csnn1 [Example 689] | 0.007 (≈ 0.0166 µM) | 7 (≈ 16.6 µM)
20 | CC(C)(C)c1ccc(CNC(=S)Nc2ccc(NC(=O)c3csnn3)cc2)cc1 [Example 690] | 0.004 (≈ 0.0094 µM) | 7 (≈ 16.4 µM)
21 | Cc1cc(C)cc(CNC(=S)Nc2ccc(NC(=O)c3csnn3)cc2)c1 [Example 691] | 0.008 (≈ 0.0201 µM) | >10
22 | Cc1cc(CCNC(=S)Nc2ccc(NC(=O)c3csnn3)cc2)ccc1N(C)C [Example 692] | 0.04 (≈ 0.0908 µM) | 6 (≈ 13.6 µM)
